According to the SangsterLogP compilation:

Experiment: method code SF-AS, from DOI: 10.1002/ps.2780410210

Row | SMILES | logP
1 | CC(C)(C)N(NC(=O)c1ccccc1)C(=O)c1cccc(I)c1 | 3.72
2 | CC(C)(C)N(NC(=O)c1ccccc1)C(=O)c1cccc(C(F)(F)F)c1 | 3.61
3 | COc1cccc(C(=O)N(NC(=O)c2ccccc2)C(C)(C)C)c1 | 2.56
4 | CC(C)(C)N(NC(=O)c1ccccc1)C(=O)c1c(F)cccc1Cl | 2.34
5 | CC(C)(C)N(NC(=O)c1ccccc1)C(=O)c1c(F)cccc1F | 2.16
6 | CC(C)(C)N(NC(=O)c1ccccc1)C(=O)c1ccc(Cl)c(Cl)c1 | 4.25
7 | COc1ccc(C(=O)N(NC(=O)c2ccccc2)C(C)(C)C)cc1OC | 2.09
8 | CC(C)(C)N(NC(=O)c1ccccc1)C(=O)c1ccc(C#N)cc1 | 2.5
9 | CC(C)(C)N(NC(=O)c1ccccc1)C(=O)c1ccc(Cl)cc1Cl | 3.55
10 | CC(C)(C)N(NC(=O)c1ccccc1)C(=O)c1ccc(F)cc1 | 2.85
11 | CC(C)(C)N(NC(=O)c1ccccc1)C(=O)c1ccc(I)cc1 | 3.78
12 | COc1ccc(C(=O)N(NC(=O)c2ccccc2)C(C)(C)C)cc1 | 2.56
13 | CC(C)(C)N(NC(=O)c1ccccc1)C(=O)c1c(Cl)cccc1Cl | 2.56
14 | CC(C)(C)N(NC(=O)c1ccccc1)C(=O)c1cccc([N+](=O)[O-])c1 | 2.73
15 | CC(C)(C)N(NC(=O)c1ccccc1)C(=O)c1ccc(Br)cc1 | 3.66
16 | CC(C)(C)N(NC(=O)c1ccccc1)C(=O)c1cc(F)c(F)c(F)c1F | 3.44
17 | CC(C)(C)N(NC(=O)c1ccccc1)C(=O)c1ccccc1 | 2.45
18 | CC(C)(C)N(NC(=O)c1ccccc1)C(=O)c1cccc(F)c1 | 2.78
19 | CC(C)(C)N(NC(=O)c1ccccc1)C(=O)c1cccc(Cl)c1 | 3.28
20 | CC(C)(C)N(NC(=O)c1ccccc1)C(=O)c1cccc(C#N)c1 | 2.34
21 | CC(C)(C)N(NC(=O)c1ccccc1)C(=O)c1c(F)c(F)c(F)c(F)c1F | 3.25
22 | CC(C)(C)N(NC(=O)c1ccccc1)C(=O)c1ccccc1C(F)(F)F | 2.85
23 | CC(C)(C)N(NC(=O)c1ccccc1)C(=O)c1ccc(Cl)cc1 | 3.42
24 | CC(C)(C)N(NC(=O)c1ccccc1)C(=O)c1ccc(C(F)(F)F)cc1 | 3.77
25 | Cc1cc(C)cc(C(=O)N(NC(=O)c2ccccc2)C(C)(C)C)c1 | 3.39
26 | CC(C)(C)N(NC(=O)c1ccccc1)C(=O)c1ccc([N+](=O)[O-])cc1 | 2.63

Results, then the molecule that gave them:

Row | logP | SMILES
27 | 3.18 | Cc1ccc(C(=O)N(NC(=O)c2ccccc2)C(C)(C)C)c(C)c1
28 | 2.69 | CC(C)(C)N(NC(=O)c1ccccc1)C(=O)c1ccccc1Br
29 | 3.1 | Cc1cccc(C(=O)N(NC(=O)c2ccccc2)C(C)(C)C)c1C
30 | 2.04 | COc1ccccc1C(=O)N(NC(=O)c1ccccc1)C(C)(C)C
31 | 3.57 | Cc1c(Cl)cccc1C(=O)N(NC(=O)c1ccccc1)C(C)(C)C
32 | 3.36 | CC(C)(C)N(NC(=O)c1ccccc1)C(=O)c1cc(Cl)ccc1Cl
33 | 2.99 | Cc1ccc(C(=O)N(NC(=O)c2ccccc2)C(C)(C)C)cc1
34 | 3.34 | Cc1ccc(C(=O)N(NC(=O)c2ccccc2)C(C)(C)C)cc1C
35 | 2.96 | CCc1ccccc1C(=O)N(NC(=O)c1ccccc1)C(C)(C)C
36 | 3.25 | Cc1ccc(C)c(C(=O)N(NC(=O)c2ccccc2)C(C)(C)C)c1
37 | 2.27 | CC(C)(C)N(NC(=O)c1ccccc1)C(=O)c1ccccc1[N+](=O)[O-]
38 | 2.6 | CSc1ccccc1C(=O)N(NC(=O)c1ccccc1)C(C)(C)C
39 | 3.41 | CC(C)(C)N(NC(=O)c1ccccc1)C(=O)c1cccc(Cl)c1Cl
40 | 2.75 | Cc1ccccc1C(=O)N(NC(=O)c1ccccc1)C(C)(C)C
41 | 2.79 | Cc1cccc(C(=O)N(NC(=O)c2ccccc2)C(C)(C)C)c1
42 | 2.38 | CC(C)(C)N(NC(=O)c1ccccc1)C(=O)c1ccccc1F
43 | 3.49 | CC(C)(C)N(NC(=O)c1ccccc1)C(=O)c1cccc(Br)c1
44 | 2.83 | CC(C)(C)N(NC(=O)c1ccccc1)C(=O)c1ccccc1I
